According to patent publication US20240245680A1, “Methods of Treating Retinal Vasculopathies” (Unity Biotechnology, Inc., priority 2021, published 2024):
Entries after “also recorded” stand apart in the source; their conditions may differ.

Experiments:
[1] = test system: ATF4, p-eIF2a, HIF1α protein in retina; test: Retinal immunoblot of ATF4, p-eIF2a and HIF1α after IP dosing, normoxic and OIR retinas; assay type: in vivo, mouse; conditions: IP 30 mpk, 4 hours after administration, OIR neonates, immunoblot (FIG. 13)
Procedure: Normoxic and OIR eye retinas were dissected 4 hours after Compound 39 administration and the harvested samples were kept on ice and homogenized using Precellys (500 μL tubes) tissue homogenizer in 300 μL LSD Sample/Lysis buffer. Homogenized samples were then centrifuged to separate supernatant from debris. Lysates were separated by SDS-PAGE and immunoblotted for ATF4 (D4B8), p-eIF2a (D9G8), and HIF1α (Novus™, cat. NB100-449) and control protein Actinin (Cell Signaling™, cat. 3134S).

cellular ATF4 protein = test: ATF4-HiBiT reporter assay in H2122 cells (GCN2 pathway activation); assay type: cell-based; conditions: five hours, quarter-log dilutions from 10 μM (FIG. 10A)
Procedure: Without any limitations, such assays may be used to test other compounds for GCN2 pathway activation. Activating transcription factor 4 (ATF4) was C-terminally tagged in H2122 cells (CRL-5985™) with a high affinity luciferase complementation fragment (HiBiT) through a knock-in approach using CRISPR-Cas12a technology and a single-stranded oligo DNA nucleotides (ssODNs) template carrying the HiBiT tag. Following reporter cell-line generation (H2122 ATF4-HiBIT) cells were seeded in a 96-well plate at near confluency and treated the next day with Compound 39 for five hours. A dose response was generated using quarter-log dilutions using 10 μM as the starting concentration. The Nano-Glo® HiBiT Lytic Detection (Promega®) reagent was added after five hours and allowed for plate-based bioluminescent quantification of cellular ATF4 protein using an add-mix-read assay format. Peak activation of ATF4 expression was detected at ˜250 nM of Compound 39.

[2] = test system: p-eIF2a, ATF4, DDIT3 (CHOP); test: Immunoblot of p-eIF2a, ATF4 and DDIT3 in mouse embryonic fibroblasts; assay type: cell-based; conditions: MEF cells, 250 nM, five hours, immunoblot (FIG. 10B)
Procedure: Next, mouse embryonic fibroblasts (MEF) cells were cultured to near confluency and treated for five hours with a fixed concentration (250 nM) of Compound 39. Cells were harvested in LSD lysis buffer and homogenates were separated by SDS-PAGE. Immunoblotting was performed overnight using antibodies targeting p-eIF2a (Clone D9G8), ATF4 (Clone D4B8), and DNA damage inducible transcript 3 (DDIT3) (Clone 9C8). Compound 39 treatment increases the levels of phospho-eIF2a (p-eIF2a) as well as ATF4 and DDIT3 (CHOP).

GCN2 = test: DDIT3 gene expression (qPCR) in GCN2 knockout, PERK knockout and WT cells; assay type: cell-based; conditions: GCN2 knockout, 250 nM, five hours, qPCR (FIG. 10D)
Procedure: To determine if DDIT3 activation by Compound 39 is dependent on GCN2 activation, rather than PERK, the following experiment was performed. GCN2 knockout cells (CRL-2978™), PERK knockout cells (CRL-2976™), or WT controls cells (ATCC CRL-2977™) were cultured to near confluency and treated for five hours with a fixed concentration (250 nM) of Compound 39. Following treatment, RNA was extracted using the RNeasy® 96-Kit (Qiagen), and cDNA was next generated using Superscript™ IV VILO™ Master Mix (Thermofisher®). qPCR was performed using standard TaqMan reagents and conditions. DDIT3 gene expression was detected using primer Hs00358796_g1 and Tbp was used as a control gene using primer (Hs99999910_m1).

[3] = test system: Slc7a11 and Serpinf1 gene expression in retina; test: Retinal Slc7a11 and Serpinf1 gene expression after IP dosing, normoxic and OIR neonatal mice; assay type: in vivo, mouse; conditions: IP 10, 30 or 90 mpk at P12, 4 or 24 hours
Procedure: To investigate the pharmacodynamic effect of Compound 39, it was intraperitoneally administrated at either 10, 30, or 90 mpk in both normoxic and OIR neonatal mice. The dosing formulation was based on a vehicle comprising 1% Pluronic F-68/1% HPMC, 15% captisol. Both normoxic and OIR neonates were treated at P12 (the end of hyperoxia) and taken down after 4 hours, or 24 hours later at P13. Retinas were dissected, and RNA was extracted using a fully automated, spin-column-based nucleic acid extraction instrument (Qiacube Connect™). qPCR was performed using standard TaqMan reagents and conditions. Slc7a11, Serpinf1, and Tbp (control) gene expression was determined using primers Mm00442530_m1, Mm00441270_m1, and Mm01277042_m1, respectively.

OIR mouse model = test: Oxygen-induced retinopathy (OIR) mouse model, retinal flatmounts at P17; assay type: in vivo; conditions: OIR pups, two 90 mpk intraperitoneal doses (P12 and P14), read at P17 (FIG. 14A, 15B)
Text: The OIR model is based on the exposure of mouse pups to hyperoxia during a phase when their retinal vasculature is still developing. This leads to capillary depletion, and upon return to room air, results in retinal ischemia and proliferative vascular disease in the retinal vasculature or oxygen-induced retinopathy.
C57BL/6J pups at postnatal day 7 (P7) are housed in a hyperoxic chamber (75% O2) for 5 days (n=10 per cage) leading to vessel regression in the center of the retina. CD-1 fostering mothers are rotated before and 2-3 days after entering the chamber. […]
Retinas are dissected and incubated overnight with rhodamine-labeled lectin from Bandeiraea simplicifolia (Griffonia simplicifolia) (1:100) in 1 mM CaCl2) in PBS to visualize vaso-obliterated (VO) or neovascular (NV) areas. […] Images can be analyzed on Visiopharm® to determine % VO or % NV of total retina. […]
Avascular areas and areas of neovascularization were quantified after harvest and staining of retinal flatmounts at P17 in the model.
OIR pups were treated with intraperitoneal injection of 90 mpk Compound 39 at P12, then these pups were removed to room air with their nursing mothers, repeat dosed at P14, and were sacrificed at P17. […] To determine avascular or neovascular areas, retinas were flatmounted, and stained with isolectin B4 (IB4) for fluorescence microscopy. […]

CNc1nc2ccc(-c3c(C)ccc(C(=O)c4c(-c5ccccc5)n(C)n(-c5ccccc5)c4=O)c3N)cc2s1 [Compound 39, 4-(2-Amino-4-methyl-3-(2-(methylamino)benzo[d]thiazol-6-yl)benzoyl)-1-methyl-2,5-diphenyl-1H-pyrazol-3(2H)-one]
HIF1α protein levels in retina [1]: downregulated
levels of ATF4 protein in retina [1]: increased
phospho-eIF2α levels in retina [1]: increased
concentration of peak activation of ATF4 expression (cellular ATF4 protein): ~250 nM
levels of ATF4 [2]: increases
levels of DDIT3 (CHOP) [2]: increases
levels of phospho-eIF2a (p-eIF2a) [2]: increases
dependence of DDIT3 induction on GCN2 or PERK (GCN2): dependent on GCN2 but not PERK
induction of retinal Slc7a11 gene expression ([3]; normoxic and OIR neonatal mice (FIG. 12A)): dose-dependent induction
induction of retinal Serpinf1 gene expression ([3]; normoxic and OIR neonatal mice (FIG. 12B)): dose-dependent induction
neovascularization (OIR mouse model): significant reversal; also recorded: significantly suppressed
